Measurements taken from patent US6319898A, “Method for inhibiting eukaryotic protein kinases” (Terragen Diversity, Inc., priority 1998, dated 2001).
Residues, ends and D or L forms follow the SMILES beside them.

Legend:
Streptomyces 85E = test: Inhibition of sporulation of Streptomyces 85E, filter paper disc on seeded plate; assay type: cell-based, Streptomyces WEC478-85E; conditions: surfactin in these concentrations (1 to 10 ug on the disc)
Procedure: In the test assay, material to be tested was applied to a filter paper disk and then placed on a plate which has been freshly seeded with the strain […] test organism. The test organism is then allowed to grow in the presence of the filter paper disk for a period of 24 to 36 hours, after which the organism is evaluated for altered development in the zone around the disk. An observation of an inhibition of the formation of aerial mycelia and spores, without inhibition of the growth of vegetative mycelia is particularly indicative of the presence of an inhibitor of post-translational phosphorylation. Samples of surfactin prepared as described from Bacillus 60A as well as surfactin from Bacillus subtilis with the same molecular weight (1036) obtained from Sigma were tested for their ability to inhibit sporulation of Streptomyces […].

S. aureus = test: Growth inhibition of S. aureus; assay type: cell-based; conditions: surfactin in these concentrations (1 to 10 ug on the disc)
Text: (§1) Eventually the inhibition is overcome and the culture sporulates.

[1] = system: Protein Kinase C purified from rat brain; test: Protein Kinase C colorimetric assay (Pierce), absorbance at 570 nm; assay type: biochemical; conditions: for absorbance read at 570 nm: 10 ng PKC + 10 ug, 30 min at 30° C, control reaction 0.228 (srf), 0.203 (polymyxin B)
Procedure: Protein Kinase C purified from rat brain was obtained from Upstate Biotechnology. The activity of the enzyme was assayed in a colorimetric assay developed by Pierce. Reaction mixtures were prepared to contain 5 ul each of the 5×reaction buffer, the dye labeled glycogen synthase synthetic peptide substrate reconstituted to 1.77 mM and the 5× activator solution of phosphatidyl-L-serine, all supplied by Pierce in a PKC assay kit. The activator solution was sonicated for 30 sec. on ice prior to use. 1 ul of the kinase (equivalent to 10 ng of enzyme with a specific activity of 12.1 units/mg) was added to 10 ul of a solution containing the compound to be tested for inhibitory activity and allowed to stand at room temperature for 10 minutes then transferred to the reaction tube containing the substrate and incubated 30 min. at 30° C. After incubation 20 ul of each sample was applied to the centre of the affinity membrane in the separation units supplied with the assay kit. These membranes specifically bind the phosphorylated dye labeled substrate while non-phosphorylated peptide will pass through when spun at low speeds. After washing the membranes the phosphorylated peptide was eluted by spinning with the elution buffer and absorbance read at 570 nm in a Molecular Devices V-max plate reader.

E. coli = test: Growth inhibition of E. coli; assay type: cell-based; conditions: surfactin in these concentrations (1 to 10 ug on the disc)
Text: as §1

Human c-Src (p60^c-src) = target: T1, Human c-Src (p60^c-src) (Homo sapiens, UniProt P12931); test: c-Src tyrosine kinase ELISA based assay (Pierce), absorbance at 450 nm; assay type: biochemical
T1 construct: purchased Upstate Biotechnology
Procedure: Human c-Src (p60^c-src) was obtained from Upstate Biotechnology. The activity of the enzyme was assayed in an ELISA based assay developed by Pierce. Following their protocol, 500 ng of a biotinylated peptide substrate in distilled water (Pierce biotinylated peptide substrate #2, sequence Biotin-EGPWLEEEEEAYGWMDF) (SEQ ID NO:2) was added to a NeutrAvidin™ coated well, incubated at 37° C. for 30 minutes to allow binding to the well then washed with Tris-buffered saline (TBS, 25 mM Tris, 0.15 M NaCl, pH 7.6). For each reaction, a reaction buffer mixture was prepared to contain 10 ul of src assay buffer (100 mM Tris-HCl, pH 7.2, 25 mM MnCl2, 2.0 mM EGTA, 0.25 mM Na3 VO4, 125 mM Mg Acetate) 20 ul of ATP/MgCl2 buffer (5 mM ATP, 50 MM MgCl2 in TBS) and 1 ul of protease inhibitor mix (PMSF and pepstatin, final concentrations in Rx: 0.5 mM and 1.5 uM). The src enzyme is supplied at a concentration of 3 units per microliter and dilutions of the kinase were prepared in 1% bovine serum albumin (BSA) in TBS typically to final concentrations of 0.2 or 0.4 units in 10 ul. 10 ul of a solution of a compound to be tested for inhibitory activity was added to the reaction buffer mixture and allowed to stand 10-15 min. at room temperature, then 10 ul of the diluted kinase enzyme was added and the mixture was allowed to stand 10 min. at room temperature before addition to the substrate coated well. The plate was incubated at 30° C. for varying periods of time then the contents were washed out with repeated rinsings with TBS. A mouse monoclonal anti-phosphotyrosine antibody (PY20) conjugated to horseradish peroxidase (Pierce) was diluted 1:2000 in 1% BSA diluent from 1 mg/ml and 75 ul of this dilution was added to each well, incubated 1 hour at 37° C. then washed out with repeated rinsings with TBS.
100 ul of horseradish peroxidase substrate solution (3,3',5,5' tetramethylbenzidine and H2 O2, Pierce TMB-ELISA) was added to each well and after 10 min. the reaction was stopped with the addition of 100 ul of 1 N H2 SO4. Absorbance was read at 450 nm in a Molecular Devices V-max plate reader.
Examples of inhibition detected using this assay: (Values reported are the absorbance readings after subtraction of a blank well containing no enzyme.)

T1 sequence (P12931 whole entry): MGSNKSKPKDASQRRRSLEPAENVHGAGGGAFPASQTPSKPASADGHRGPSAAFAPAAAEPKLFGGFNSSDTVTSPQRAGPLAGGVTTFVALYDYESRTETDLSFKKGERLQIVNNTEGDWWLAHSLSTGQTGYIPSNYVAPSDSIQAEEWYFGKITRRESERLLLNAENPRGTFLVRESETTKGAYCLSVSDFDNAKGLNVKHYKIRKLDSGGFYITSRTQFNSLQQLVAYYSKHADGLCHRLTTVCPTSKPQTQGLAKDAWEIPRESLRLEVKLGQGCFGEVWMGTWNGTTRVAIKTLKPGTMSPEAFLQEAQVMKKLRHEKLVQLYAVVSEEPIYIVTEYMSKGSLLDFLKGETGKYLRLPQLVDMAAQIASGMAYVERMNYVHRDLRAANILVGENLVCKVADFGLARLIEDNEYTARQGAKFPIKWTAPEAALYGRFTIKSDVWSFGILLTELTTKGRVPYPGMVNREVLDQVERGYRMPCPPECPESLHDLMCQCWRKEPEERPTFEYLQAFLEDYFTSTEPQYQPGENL

Molecule	inhibition of growth of the vegetative mycelia (Streptomyces 85E)	persistence of the inhibition of aerial mycelia and spore formation after unaffected portions of the culture have sporulated (Streptomyces 85E) [days]	inhibition of growth of S. aureus (S. aureus)	absorbance read at 570 nm [1]	inhibition of Protein Kinase C ([1]; 380 uM in the reaction)	inhibition of growth of E. coli (E. coli)	inhibition of the activity of the tyrosine kinase (Human c-Src (p60^c-src); 100 uM in the reaction)	inhibition of the activity of the tyrosine kinase (Human c-Src (p60^c-src); 200 uM in the reaction (10 ug))	absorbance reading after subtraction of a blank well containing no enzyme (Human c-Src (p60^c-src); 0.05 unit c-Src + 10 ug, 30 min at 30° C, control reaction 0.315)	absorbance reading after subtraction of a blank well containing no enzyme (Human c-Src (p60^c-src); 0.1 unit c-Src + 10 ug, 30 min at 30° C, control reaction 0.391)	absorbance reading after subtraction of a blank well containing no enzyme (Human c-Src (p60^c-src); 0.2 unit c-Src + 5 ug, 5 min at 30° C, control 0.220)	absorbance reading after subtraction of a blank well containing no enzyme (Human c-Src (p60^c-src); 0.2 unit c-Src + 10 ug, 5 min at 30° C, control 0.220)	absorbance reading after subtraction of a blank well containing no enzyme (Human c-Src (p60^c-src); 0.2 unit c-Src + 10 ug, 30 min at 30° C, control reaction 0.396)	absorbance reading after subtraction of a blank well containing no enzyme (Human c-Src (p60^c-src); 0.4 unit c-Src + 10 ug, 30 min at 30° C, control reaction 0.517)	potency against the tyrosine kinase c-Src compared with the serine-threonine kinase PKC (Human c-Src (p60^c-src); conclusion from the c-Src and PKC assays)
CC(C)CCCCCCCCC[C@@H]1CC(=O)N[C@@H](CCC(=O)O)C(=O)N[C@@H](CC(C)C)C(=O)N[C@H](CC(C)C)C(=O)N[C@@H](C(C)C)C(=O)N[C@@H](CC(=O)O)C(=O)N[C@H](CC(C)C)C(=O)N[C@@H](CC(C)C)C(=O)O1 [surfactin] (HELM PEPTIDE1{E.L.[dL].V.D.[dL].L}|CHEM1{[CC(C)CCCCCCCCC[C@H](CC(=O)[*:1])O[*:2]]}$PEPTIDE1,CHEM1,1:R1-1:R1|PEPTIDE1,CHEM1,7:R2-1:R2$$$V2.0)	does not inhibit growth of the vegetative mycelia	3 to 4	does not inhibit growth	0.181	only minimally inhibitory	does not inhibit growth	has inhibited the activity of the tyrosine kinase tested	has inhibited the activity of the tyrosine kinase tested	0.050	0.093	0.185	0.087	0.191	0.311	more potent inhibitors of the tyrosine kinase tested than this serine-threonine kinase
Polymyxin B [reference compound]				0.035											
